# From article PMC8305768, “Design, Synthesis and Antiparasitic Evaluation of Click Phospholipids” (Molecules, 2021)
# Counter-ions that a name gives are not always drawn. Like-named read-outs stand apart in the source and are kept apart here.
# Key:
# [1] = test system: L. infantum MHOM/TN/80/LEM235 intracellular amastigotes; assay: Activity against L. infantum MHOM/TN/80/LEM235 intramacrophage amastigotes (infected THP-1, Giemsa staining); assay type: cell-based, Leishmania infantum; conditions: for Selectivity Index CC50/IC50: CC50 THP-1 / IC50 L. infantum MHOM/TN/80/LEM235; for IC50: Leishmania infantum, read-out: L. infantum MHOM/TN/80/LEM235 intracellular amastigotes IC50 ± SD
# Method: THP-1 cells were differentiated with […] retinoic acid (Sigma, Saint Louis, MI, USA) for 3 days at 37 °C and 5% CO2. Infection of THP-1 cells with promastigotes was achieved by mixing the THP-1 and the parasite cultures at a ratio of 1:4 and incubation at 37 °C and 5% CO2. The next day cells were washed by centrifugation at 400 × g for 10 min, the pellet was resuspended in RPMI medium, and the suspension was overlaid with an equal volume of Histopaque 1077 (Invitrogen, Waltham, MA, USA). The free promastigotes were removed by centrifugation at 1000 × g for 20 min. The cell layer was washed with PBS twice and resuspended in RPMI at 4 × 10^5 cells/mL. Infection rate was assessed microscopically by Giemsa staining of the infected THP-1 suspension. An amount of 200 µL of infected THP-1 was plated in a 24-well tissue culture plate (Cellstar®, Greiner) (Sigma-Aldrich Chemie GMBH, Taufkirchen, Germany) and mixed with an equal volume of the appropriate compound concentration (compounds were dissolved in DMSO/ethanol, 50/50 v/v, to a final concentration of 65 mM and linear 5-fold dilutions ranging from 100 to 0.8 µM were done in the culture medium). Incubation proceeded for 72 h at 37 °C and 5% CO2, and the percentage of infected cells was monitored microscopically after Giemsa staining.
# [2] = target: T1, Aurora B kinase (Homo sapiens, UniProt Q96GD4); assay: Aurora B kinase assay (ADP-Glo); assay type: biochemical; conditions: compounds 10 μM; miltefosine 10 μM or 1 μM; read-out: % inhibition ± SD at 10 μΜ Aurora B
# T1 construct: purchased Promega Corp
# T1 sequence (Q96GD4 whole entry): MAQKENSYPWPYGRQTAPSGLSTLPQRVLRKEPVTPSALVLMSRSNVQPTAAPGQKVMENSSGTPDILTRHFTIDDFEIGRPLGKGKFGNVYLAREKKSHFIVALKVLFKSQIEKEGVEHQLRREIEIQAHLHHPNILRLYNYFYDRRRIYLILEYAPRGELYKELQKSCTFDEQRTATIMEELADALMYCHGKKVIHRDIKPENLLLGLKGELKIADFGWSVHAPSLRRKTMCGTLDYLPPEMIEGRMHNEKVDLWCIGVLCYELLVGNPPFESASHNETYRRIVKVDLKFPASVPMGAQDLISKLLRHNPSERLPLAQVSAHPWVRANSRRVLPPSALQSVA
# Method: Aurora B kinase assay: Inhibition of Aurora B kinase was determined using the ADP-Glo Kinase Enzyme System (Promega Corp., Madison, WI, USA). The positive control was SU6656 at a final concentration of 1 μM, with the NC being DMSO at the same concentration (v/v). An enzyme master mix containing 1 × buffer, 50 μM DTT and 17.5 ng/μL ([…]) Aurora B (all reagents provided in the kit) was prepared. A substrate master mix containing 1 × buffer, 36 μM adenosine triphosphate (ATP) and 7.5 ng/μL (15 ng/well) myelin basic protein (MBP) as a substrate (buffer and MBP were provided in the Aurora B Kinase Enzyme System; ultrapure ATP was provided in the ADP-Glo Kinase Assay System) was prepared. Two microliters of the enzyme master mix and 2 μL of the substrate master mix were added to each well of a 384-well low-volume plate. The plate was sealed using Thermowell sealing tape (Corning Inc., Corning, NY, USA) and incubated for 45 min at rt. The enzymatic reaction was stopped by adding 4 μL of ADP-Glo reagent (provided in the ADP-Glo Kinase Assay System) and the plate sealed using Thermowell sealing tape and incubated for 40 min at rt. Following this, 8 μL of detection reagent was added to each well, and the plate was sealed again and incubated for 45 min at rt, with the luminescence measured using the EnVision Multilabel 2103 Reader (PerkinElmer, Waltham, MA. USA). DMSO concentration was tolerated up to 2% v/v final.
# [3] = test system: T. b. brucei L427 WT bloodstream form; assay: Activity against T. brucei bloodstream forms (resazurin-based assay); assay type: cell-based; conditions: Trypanosoma brucei; 10 μM, 72 h; read-out: Single Dose Assay 10μM Mean Inhibitory Activity (%) ± SD
# Method: Trypanosoma brucei brucei Lister 427 bloodstream forms were grown at 37 °C, 5% CO2 in complete HMI-9 medium supplemented with 10% foetal calf serum (FCS) and 100 UI/mL of penicillin/streptomycin. […] The efficacy of compounds against T. brucei bloodstream forms was evaluated using a modified resazurin-based assay previously described. Mid-log bloodstream forms were added to an equal volume of serial dilutions of compounds in supplemented complete HMI-9 medium at a final cell density of 5 × 10^3/mL. Following incubation for 72 h at 37 °C 5% CO2, 20 μL of a 0.5 mM resazurin solution was added and plates were incubated for a further 4 h under the same conditions. Fluorescence was measured at 540 nm and 620 nm excitation and emission wavelength, respectively, using a Synergy 2 Multi-Mode Reader (Biotek, Winooski, VT, USA).
SMILES,Selectivity Index CC50/IC50 [1],"IC50 ([1]; infected THP-1 cells, 72 h)",inhibition at 10 µM [2],inhibition at 10 µM [3],"IC50 ([1]; THP-1, 72 h)"
"CCCCCc1cn(CCCCCCCCCCCOP(=O)([O-])OCC[N+](C)(C)C)nn1 [Compound 25, 11-(4-pentyl-1H-1,2,3-triazol-1-yl)undecyl (2-(trimethylammonio)ethyl) phosphate inner salt]",> 10.7,9.33 ± 0.99 µM,-10.3%,,
"C[N+](C)(C)CCOP(=O)([O-])OCCCCCCCCCCCn1cc(CC2CCCCC2)nn1 [Compound 29, 11-(4-(cyclohexylmethyl)-1H-1,2,3-triazol-1-yl)undecyl (2-(trimethylammonio)ethyl) phosphate inner salt]",> 200,0.5 ± 0.2 µM,-6.17%,,
"C[N+](C)(C)CCOP(=O)([O-])OCCCCCCCCCCCn1cc(CC2CCCC2)nn1 [Compound 28, 11-(4-(cyclopentylmethyl)-1H-1,2,3-triazol-1-yl)undecyl (2-(trimethylammo nio)ethyl) phosphate inner salt]",> 66.7,1.5 ± 0.4 µM,-11.7%,< 20%,
"C[N+](C)(C)CCOP(=O)([O-])OCCCCCCCCCCCn1cc(CCCCCCCCNC(=O)OCc2ccccc2)nn1 [Compound 32, 11-(4-(8-(((benzyloxy)carbonyl)amino)octyl)-1H-1,2,3-triazol-1-yl)undecyl (2-(trimethylammonio)ethyl) phosphate inner salt]",,,,36 ± 4%,
"C[N+](C)(C)CCCOP(=O)([O-])OCCCCCCCCCCCn1cc(CC2CCCCC2)nn1 [Compound 33, 11-(4-(cyclohexylmethyl)-1H-1,2,3-triazol-1-yl)undecyl (3-(trimethylammonio)propyl) phosphate inner salt]",,,,23 ± 3%,
"C[N+](C)(C)CCOP(=O)([O-])OCCCCCn1cc(CCCCCCCCNC(=O)OCc2ccccc2)nn1 [Compound 31, 5-(4-(8-(((benzyloxy)carbonyl)amino)octyl)-1H-1,2,3-triazol-1-yl)pentyl (2-(trimethylammonio)ethyl) phosphate inner salt]",,,,20 ± 1%,
"CCCCCCCCCCCCCCCCOP(=O)([O-])OCC[N+](C)(C)C [Miltefosine, hexadecylphosphocholine, reference compound]",4.9,,-12.5%,,6.68 ± 0.96 µM
